From the CheMixHub viscosity set
± gives the uncertainty stated by the source.

Assay: xn = mol fraction of the nth substance listed

CC(=O)OC(C)=O + Oc1ccccc1
viscosity [mPa·s], 101.33 kPa
Conditions	298.15 K	323.15 K
x2 = 0.0899	0.922 ± 0.0092	0.666 ± 0.0067
x2 = 0.1347	0.98 ± 0.0098	0.706 ± 0.0071
x2 = 0.1492	1.014 ± 0.01	0.733 ± 0.0073
x2 = 0.2953	1.267 ± 0.013	0.896 ± 0.009
x2 = 0.3588	1.412 ± 0.014	0.951 ± 0.0095
x2 = 0.4184	1.559 ± 0.016	1.05 ± 0.01
x2 = 0.4673	1.706 ± 0.017	1.1 ± 0.011
x2 = 0.4678	1.707 ± 0.017	1.1 ± 0.011
x2 = 0.5	1.839 ± 0.018	1.164 ± 0.012
x2 = 0.5169	1.89 ± 0.019	1.191 ± 0.012
x2 = 0.5846	2.069 ± 0.021	1.275 ± 0.013
x2 = 0.6414	2.668 ± 0.027	1.513 ± 0.015
x2 = 0.78	3.958 ± 0.04	2.017 ± 0.02
x2 = 0.8878	5.906 ± 0.059	2.623 ± 0.026

CCCCC(CC)C(=O)OCC(COC(=O)C(CC)CCCC)(COC(=O)C(CC)CCCC)COC(=O)C(CC)CCCC (stereo not drawn) + CCCCC(=O)OCC(COC(=O)CCCC)(COC(=O)CCCC)COC(=O)CCCC
Conditions	viscosity [mPa·s]
313.15 K, 100 kPa, x1 = 0.6911	32.3 ± 2.1

NCCO + C1COCCO1
101 kPa
Conditions	viscosity [mPa·s]
298.15 K, x2 = 0.0597	16.05 ± 0.49
318.15 K, x2 = 0.5716	2.255 ± 0.069

CCC(=O)CC + CC(=O)CC(C)C
298.15 K, 101 kPa
Conditions	viscosity [mPa·s]
x2 = 0.0749	0.581 ± 0.006
x2 = 0.1609	0.575 ± 0.006
x2 = 0.3004	0.571 ± 0.006
x2 = 0.4466	0.566 ± 0.006
x2 = 0.5932	0.562 ± 0.006
x2 = 0.7509	0.558 ± 0.006
x2 = 0.8066	0.553 ± 0.006
x2 = 0.8789	0.548 ± 0.006

OCc1ccccc1 + C1COCCO1
viscosity [mPa·s], 101 kPa
Conditions	x1 = 0.201	x1 = 0.2986	x1 = 0.4001	x1 = 0.4991	x1 = 0.7017	x1 = 0.9009
303.15 K	1.398 ± 0.068	1.609 ± 0.078	1.842 ± 0.088	2.149 ± 0.1	2.975 ± 0.14	4.03 ± 0.19
308.15 K	1.288 ± 0.063	1.456 ± 0.071	1.679 ± 0.081	1.92 ± 0.092	2.615 ± 0.12	3.54 ± 0.17
313.15 K	1.178 ± 0.058	1.385 ± 0.068	1.553 ± 0.075	1.797 ± 0.086	2.387 ± 0.11	3.199 ± 0.15

C1CCCC1 + CCCCCO
101.3 kPa
Conditions	viscosity [mPa·s]
298.15 K, x1 = 0.0498	3.211 ± 0.021
298.15 K, x1 = 0.0796	3.013 ± 0.02
298.15 K, x1 = 0.1294	2.679 ± 0.018
298.15 K, x1 = 0.1855	2.343 ± 0.017
298.15 K, x1 = 0.2386	2.037 ± 0.016
298.15 K, x1 = 0.2579	1.924 ± 0.015
298.15 K, x1 = 0.2645	1.883 ± 0.015
298.15 K, x1 = 0.2919	1.755 ± 0.014
298.15 K, x1 = 0.3012	1.709 ± 0.014
298.15 K, x1 = 0.351	1.481 ± 0.013
298.15 K, x1 = 0.3712	1.406 ± 0.013
298.15 K, x1 = 0.4221	1.221 ± 0.013
298.15 K, x1 = 0.4544	1.118 ± 0.012
298.15 K, x1 = 0.5073	0.992 ± 0.012
298.15 K, x1 = 0.5388	0.926 ± 0.012
298.15 K, x1 = 0.569	0.869 ± 0.011
298.15 K, x1 = 0.596	0.827 ± 0.011
298.15 K, x1 = 0.6189	0.79 ± 0.011
298.15 K, x1 = 0.6343	0.771 ± 0.011
298.15 K, x1 = 0.6621	0.739 ± 0.011
298.15 K, x1 = 0.6893	0.707 ± 0.011
298.15 K, x1 = 0.7282	0.685 ± 0.011
298.15 K, x1 = 0.774	0.663 ± 0.011
298.15 K, x1 = 0.8207	0.613 ± 0.011
298.15 K, x1 = 0.8699	0.566 ± 0.011
298.15 K, x1 = 0.9192	0.515 ± 0.011
298.15 K, x1 = 0.9698	0.447 ± 0.01
308.15 K, x1 = 0.0419	2.415 ± 0.017
308.15 K, x1 = 0.1319	2.057 ± 0.016
308.15 K, x1 = 0.2149	1.783 ± 0.014
308.15 K, x1 = 0.2986	1.542 ± 0.014
308.15 K, x1 = 0.3735	1.35 ± 0.013
308.15 K, x1 = 0.4	1.287 ± 0.013
308.15 K, x1 = 0.4437	1.19 ± 0.012
308.15 K, x1 = 0.4804	1.118 ± 0.012
308.15 K, x1 = 0.5152	1.049 ± 0.012
308.15 K, x1 = 0.6882	0.817 ± 0.011
308.15 K, x1 = 0.7025	0.798 ± 0.011
308.15 K, x1 = 0.7196	0.781 ± 0.011
308.15 K, x1 = 0.7454	0.752 ± 0.011
308.15 K, x1 = 0.7726	0.727 ± 0.011
308.15 K, x1 = 0.809	0.681 ± 0.011
308.15 K, x1 = 0.8542	0.617 ± 0.011
308.15 K, x1 = 0.9094	0.517 ± 0.011
308.15 K, x1 = 0.955	0.418 ± 0.01
318.15 K, x1 = 0.1213	1.768 ± 0.014
318.15 K, x1 = 0.1891	1.573 ± 0.014
318.15 K, x1 = 0.2652	1.36 ± 0.013
318.15 K, x1 = 0.34	1.171 ± 0.012
318.15 K, x1 = 0.4015	1.035 ± 0.012
318.15 K, x1 = 0.4409	0.953 ± 0.012
318.15 K, x1 = 0.4863	0.864 ± 0.011
318.15 K, x1 = 0.5184	0.807 ± 0.011
318.15 K, x1 = 0.5402	0.775 ± 0.011
318.15 K, x1 = 0.5588	0.74 ± 0.011
318.15 K, x1 = 0.6063	0.67 ± 0.011
318.15 K, x1 = 0.665	0.593 ± 0.011
318.15 K, x1 = 0.7127	0.537 ± 0.011
318.15 K, x1 = 0.7882	0.467 ± 0.011
318.15 K, x1 = 0.8688	0.405 ± 0.01
318.15 K, x1 = 0.9451	0.359 ± 0.01

CCC(=O)CC + CCOC(=O)OCC
viscosity [mPa·s], 101 kPa
Conditions	x2 = 0.0893	x2 = 0.1498	x2 = 0.2601	x2 = 0.3555	x2 = 0.4667	x2 = 0.5689	x2 = 0.6701	x2 = 0.7565	x2 = 0.8858	x2 = 0.9501
303.15 K	0.452 ± 0.013	0.468 ± 0.014	0.496 ± 0.015	0.521 ± 0.015	0.55 ± 0.016	0.578 ± 0.016	0.606 ± 0.017	0.631 ± 0.018	0.668 ± 0.019	0.686 ± 0.019
308.15 K	0.417 ± 0.013	0.431 ± 0.013	0.457 ± 0.014	0.481 ± 0.014	0.509 ± 0.015	0.535 ± 0.015	0.563 ± 0.016	0.586 ± 0.017	0.622 ± 0.018	0.641 ± 0.018
313.15 K	0.405 ± 0.012	0.417 ± 0.013	0.439 ± 0.013	0.459 ± 0.014	0.484 ± 0.014	0.508 ± 0.015	0.532 ± 0.015	0.554 ± 0.016	0.589 ± 0.017	0.607 ± 0.017

NCCO + CN1CCCC1=O
viscosity [mPa·s], 101 kPa
Conditions	293.15 K	298.15 K	303.15 K	308.15 K	313.15 K	318.15 K	323.15 K
x1 = 0.1558	2.99 ± 0.026	2.712 ± 0.023	2.484 ± 0.021	2.293 ± 0.02	2.133 ± 0.018	1.996 ± 0.017	–
x1 = 0.3001	3.547 ± 0.031	3.176 ± 0.028	2.869 ± 0.025	2.612 ± 0.023	2.397 ± 0.021	2.218 ± 0.019	2.065 ± 0.018
x1 = 0.4204	4.72 ± 0.041	4.121 ± 0.036	3.633 ± 0.032	3.236 ± 0.028	2.909 ± 0.026	2.638 ± 0.023	2.415 ± 0.021
x2 = 0.2076	–	–	10.07 ± 0.49	–	6.755 ± 0.35	–	5.018 ± 0.28
x2 = 0.4003	–	–	6.647 ± 0.35	–	4.811 ± 0.27	–	3.622 ± 0.21
x2 = 0.5994	–	–	4.361 ± 0.25	–	3.317 ± 0.19	–	2.559 ± 0.15
x2 = 0.7992	–	–	2.604 ± 0.15	–	2.118 ± 0.13	–	1.799 ± 0.11

C1CCCC1 + CCC(C)O
101 kPa
Conditions	viscosity [mPa·s]
298.15 K, x1 = 0.0967	2.238 ± 0.1
298.15 K, x1 = 0.1932	1.702 ± 0.08
298.15 K, x1 = 0.2298	1.578 ± 0.075
298.15 K, x1 = 0.2524	1.454 ± 0.069
298.15 K, x1 = 0.3078	1.253 ± 0.061
298.15 K, x1 = 0.3627	1.081 ± 0.053
298.15 K, x1 = 0.4215	0.936 ± 0.047
298.15 K, x1 = 0.5078	0.7825 ± 0.04
298.15 K, x1 = 0.5772	0.6742 ± 0.035
298.15 K, x1 = 0.7238	0.5339 ± 0.029
298.15 K, x1 = 0.8256	0.4728 ± 0.027
298.15 K, x1 = 0.9298	0.4297 ± 0.025
308.15 K, x1 = 0.0075	2.095 ± 0.098
308.15 K, x1 = 0.047	1.917 ± 0.091
308.15 K, x1 = 0.0598	1.7 ± 0.081
308.15 K, x1 = 0.0917	1.552 ± 0.075
308.15 K, x1 = 0.107	1.509 ± 0.073
308.15 K, x1 = 0.2217	1.298 ± 0.063
308.15 K, x1 = 0.2626	1.177 ± 0.057
308.15 K, x1 = 0.3099	1.049 ± 0.052
308.15 K, x1 = 0.3653	0.8998 ± 0.045
308.15 K, x1 = 0.4219	0.8068 ± 0.041
308.15 K, x1 = 0.496	0.6842 ± 0.036
308.15 K, x1 = 0.5716	0.5943 ± 0.032
308.15 K, x1 = 0.6554	0.5084 ± 0.028
308.15 K, x1 = 0.7457	0.4481 ± 0.026
308.15 K, x1 = 0.845	0.4249 ± 0.025
308.15 K, x1 = 0.9255	0.3819 ± 0.023
308.15 K, x1 = 0.9753	0.3779 ± 0.023

[Br-].[Na+] + OCCO
101 kPa, x1 = 0.142
Conditions	viscosity [mPa·s]
303 K	39.03 ± 0.57
313 K	25.16 ± 0.35
323 K	17.24 ± 0.23

Nc1ccccc1[N+](=O)[O-] + CC(C)=O
viscosity [mPa·s], 101 kPa
Conditions	298.15 K	303.15 K	308.15 K	313.15 K
x1 = 0.3297	1.229 ± 0.031	1.142 ± 0.029	1.059 ± 0.027	0.9826 ± 0.025
x1 = 0.5407	2.366 ± 0.06	2.175 ± 0.055	1.994 ± 0.05	1.817 ± 0.046

CCOC(=O)CC#N + N#CCc1ccccc1
viscosity [mPa·s], 101 kPa
Conditions	x2 = 0.1383	x2 = 0.4842	x2 = 0.8426
303.15 K	2.135 ± 0.025	1.995 ± 0.021	–
313.15 K	–	–	1.535 ± 0.016
